# Experimental data: patent US20240050413A1, “COMPOSITIONS AND METHODS FOR TREATING MULTIPLE SCLEROSIS AND ALLEVIATING FATIGUE” (University of Miami, priority 2020, published 2024)
# “And” between values parts separate entries of the source, which are not always exact repeats. Equal entries are not always repeated.
# Experiments:
# Assay type in all cases: in vivo, human
# [1] = PK/PD: L-histidine levels in plasma and CSF after final dose
# Experimental: (§1) Medications were dispensed for 7 days. On day 8, subjects arrived at the center and received the final dose of the study drug and timed from that dosing for the PK/PD studies.
# (§2) Blood samples were collected at drug administration, and every 30 minutes for 4 hours. At 90 minutes the second and final lumbar puncture was completed, and CSF obtained for measurement of L-histidine and histamine. All subjects completed the same questions to determine the effects of the treatment on fatigue, wakefulness and satiety.
# On day 7 from the baseline, the end-of-study visit, subjects arrived at the center without taking the last dose, which was administered under supervision and timed for time-zero. Baseline samples of blood for serum and plasma were collected and blood samples were obtained every half-hour for 6 hours.
# At 90 minutes post administration a lumbar puncture was performed, and 0.5 ml aliquots of spinal fluid were collected for a total of 5 minutes. Spinal fluid, serum, and plasma were frozen at -80C until analysis for levels of histidine, histamine and metabolomic studies.
# L-Histidine and L-Histidine-^13G6 analytical standards (Sigma Aldrich) were prepared in LC-MS grade water with 0.1% formic acid (FA). 25 μL of sample (CSF or blood) or calibration standard was mixed with 75 μL of LC-MS grade water with 0.1% FA and 200 μL of 2.5 μM L-Histidine-^13G6. […]
# CSF biochemicals = assay: Metabolomics in the cerebrospinal fluid after histidine loading
# Excerpt: Four CSF samples from normal subjects (2 before histidine loading and 2 after) and 12 CSF samples from MS patients (6 before and 6 after histidine loading) were examined in this study. The MS samples were evenly distributed from 3 responders and 3 non-responder MS subjects. The dataset comprised a total of 494 biochemicals, 434 known and 60 unknown entities. […] A summary of the biochemicals that achieved significance (p≤0.05) as also those approaching significance (0.05<p<0.10), were examined. All assays also examined estimates of false discoveries (q-value) inherent in estimates that use multiple comparisons. A low q-value (<0.1) gave confidence in a result with a low p value as a potentially meaningful result.
# [2] = tested on: MS subjects with severe fatigue; assay: Sequential dose escalation study of fatigue in multiple sclerosis (VAFS, FSS, MFIS, Epworth sleep scale, satiety scale, adverse events); conditions: for improvement in the MFIS: on-drug vs off-drug
# Experimental: Three groups of subjects participated in a sequential dose escalation protocol. All subjects received a fixed dose of carbidopa, 50 mg po bid. […] Tablets of the study drugs were produced by the research pharmacy at the University of Miami. Carbidopa was prepared in 50 mg, and 1-histidine at 250 mg strength. Drug dispensation was carried out by the research pharmacist according to the dosage designated for each group.
# Benefits and adverse events were documented and reported to the Data Safety Monitoring Body (DSMB). After approval from the DSMB, group 2 was started. Group 2 received 500 mg po bid of L-histidine. Once again after approval from the DSMB, following the successful completion of group 2, escalation to group 3, namely 1 gm po bid of L-histidine was completed. All subjects agreed to participate with 2 lumbar punctures each a week apart, for collection of cerebrospinal fluid (CSF) for the PK/PD part of the study. Each group required the participation of 3 MS subjects and 1 normal individual. For whatever reason if a subject could not complete the study, the design permitted substitution so every group will have three MS subjects and a normal subject that completed the trial.
# After informed consent, subjects were screened at the first visit to meet inclusion/exclusion criteria and baseline laboratory studies were obtained including complete blood counts, comprehensive metabolic panel, thyroid panel, and inventory of health measures, including a complete general examination as well as EKG. Subjects completed questionnaires that included the following: Visual Analogue Fatigue Scale (VAFS), fatigue severity scale (FSS), modified fatigue impact scale (MFIS), Epworth sleep scale, Satiety scale, and Center for Epidemiologic Studies Depression Scale. Within 30 days of their screening visit, subjects returned for their baseline visit. The questionnaires were completed again, and subjects underwent the baseline lumbar puncture for collection of baseline cerebrospinal fluid (CSF).
# The study medication for the appropriate group was dispensed and all subjects took the first dose of the study drug during this visit.
# as §1, §2
# All subjects were recruited from the MS Center at the University of Miami. Subjects who complained of severe and persistent fatigue of duration longer than 6 months were eligible to be screened for the study. During screening inclusion and exclusion criteria were carefully reviewed. To be eligible, a subject needed to have a definite diagnosis of MS by the McDonald International Criteria and severe fatigue with a mean Fatigue Severity Score (FSS) of 5.0 or greater (maximum mean FSS=7.0). Patients with confounding factors such as anemia, untreated hypothyroidism, depression, concomitant medication that caused fatigue were carefully examined and excluded. Use of stimulants and concomitant use of medications for treatment of fatigue such as modafinil was excluded. Use of caffeine was not restricted, but patients were instructed not to change the usage. Pregnant or lactating females were not included in the study. Patients were cautioned not to use over-the-counter medications without approval of the PI during the study, especially medications for sleep or allergies including but not limited to the use of oral steroids or antihistamines with potential to confound the results of the trial.
# They were spouses of patients who participated in this trial. […]
# [3] = following histidine loading, lower prior to loading
# [4] = responder population after histidine loading, FIG. 8
# [5] = Group 1: 150 mg po bid of L-histidine and carbidopa 50 mg po bid, one individual
# [6] = Group 2: 500 mg po bid of L-histidine and carbidopa 50 mg po bid, single subject
# [7] = Group 2 responder, 500 mg po bid of L-histidine and carbidopa 50 mg po bid
# [8] = short exposure to the study drug
structure (smiles),measurement,setting,value
N[C@@H](Cc1c[nH]cn1)C(=O)O [L-histidine],time after which plasma L-histidine levels became undetectable,"[1]; human, in vivo",> 4 h
same,time of peak levels of L-histidine in the plasma,"[1]; plasma, after final dose, FIG. 5A, 500 mg carbidopa arm",2 h
same,Histamine levels in the CSF,CSF biochemicals; FIG. 7,below the level of detection sensitivity
same,Histidine levels in CSF after loading,"CSF biochemicals; MS patients and normal subjects, FIG. 7",increased after loading similarly in MS patients and normal subjects
same,Deoxycarnitine in CSF,CSF biochemicals; after histidine loading,increased
same,NAA levels in CSF,CSF biochemicals; after histidine loading,increased
same,Carnosine and homocarnosine levels in CSF,"CSF biochemicals; after histidine loading, FIG. 7",did not change significantly
same,levels of carnosine and homocarnosine,CSF biochemicals; after the intervention (concluding statement),increases the levels
same,Acetoacetate in CSF,CSF biochemicals; [3],increased following histidine loading
same,beta hydroxybutyrate in CSF,CSF biochemicals; [3],increased following histidine loading
same,cis-aconitate in CSF,"CSF biochemicals; post dosing, MS subjects",increases were observed
same,citrate in CSF,"CSF biochemicals; post dosing, MS subjects",increases were observed
same,Creatine phosphate in CSF,CSF biochemicals; [4],increased
same,N-acetylaspartate (NAA) in CSF,CSF biochemicals; [4],increased
same,adverse events,[2]; Group 1: 150 mg po bid of L-histidine and carbidopa 50 mg po bid,No adverse events were reported
same,"response in fatigue scales (VAFS, FSS, MFIS)",[2]; [5],improved fatigue scores in all three fatigue scales
same,improvement in the MFIS,[2]; [5],30%
same,"response in fatigue scales (VAFS, FSS, MFIS)",[2]; [6],improvement in all 3 fatigue scales
same,improvement in the MFIS,[2]; [6],81%
same,cognition (written narrative),[2]; [7],"able to think clearly, have better focus, and improved cognition"
same,libido and sexual activity (written narrative),[2]; [7],Remarkable improvement of libido and sexual activity
same,overall quality of life (written narrative),[2]; [7],marked improvement in overall quality of life
same,relief from fatigue (written narratives),[2]; Group 3: L-histidine 1 gm po bid and carbidopa 50 mg po bid,The relief from fatigue was complete
same,"response in fatigue scales (VAFS, FSS, MFIS)","[2]; Group 3: L-histidine 1 gm po bid and carbidopa 50 mg po bid, MS subjects",three of the three MS subjects noticed remarkable improvement
same,improvements of MFIS better than off-drug scores,"[2]; Group 3: L-histidine 1 gm po bid and carbidopa 50 mg po bid, three MS subjects, one value each",69% and 74% and 82%
same,day on which subjects noticed the change,"[2]; all subjects who noted improvement, at whatever dose, response sustained until study drug discontinued",~2 days
same,adverse events,[2]; normal subjects,Nor did they experience any adverse events
same,benefit from the study drug,"[2]; normal subjects (no MS, no fatigue)",did not notice any benefit
same,subset scores of MSFC (post-hoc examination),"[2]; responders, physical, cognitive and psychosocial domains","improvement of all three domains, physical, cognitive and psychosocial"
same,change in satiety scale,[2]; [8],A change in satiety scale was not recorded
same,change in weight,[2]; [8],A change in weight was also not recorded
same,Epworth Sleep Scale (ESS) on study drug,"[2]; single fatigue responder with ESS over 10, dropped from 13",6
same,reported adverse events,"[2]; whole study, all groups",few and related to the lumbar punctures or unrelated intercurrent infections
